Tests used:
human B1R = biological target: T1, human B1R (Homo sapiens, UniProt P46663); assay: FLIPR Ca2+ functional assay, B1R antagonism, human B1R in CHO K1 cells; type: cell-based; conditions: test substance 10 μM; hB1R CHO K1 cells; agonist Lys-Des-Arg9 bradykinin at EC80; % of maximum achievable inhibition
T1 construct: expressed in transfected cells; host or cells: CHO K1 cells (Chinese hamster ovary), stably transfected
T1 sequence (P46663 1-353): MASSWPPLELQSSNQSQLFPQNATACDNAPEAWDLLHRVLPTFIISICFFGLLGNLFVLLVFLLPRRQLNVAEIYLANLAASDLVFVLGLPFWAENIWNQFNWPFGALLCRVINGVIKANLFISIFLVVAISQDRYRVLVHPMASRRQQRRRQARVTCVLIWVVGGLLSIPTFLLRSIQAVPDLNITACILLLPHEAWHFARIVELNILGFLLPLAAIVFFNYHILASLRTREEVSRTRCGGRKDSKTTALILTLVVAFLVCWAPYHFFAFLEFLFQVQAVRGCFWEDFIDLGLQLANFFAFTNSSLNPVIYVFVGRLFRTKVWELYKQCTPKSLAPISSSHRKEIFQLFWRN
Method: The agonistic or antagonistic action of substances on the bradykinin 1 receptor (B1R) of the human and rat species can be quantified with ectopically expressing cell lines (CHO K1 cells) and with the aid of a Ca^2+-sensitive dye (Fluo-4) using a fluorescent imaging plate reader (FLIPR). The value in % activation is based on the Ca^2+ signal after addition of Lys-Des-Arg^9 bradykinin (0.5 nM) or Des-Arg^9 bradykinin (100 nM). Antagonists lead to a suppression of the Ca^2+ influx following administration of the agonist. The % inhibition in comparison with the maximum achievable inhibition is indicated.
1. Functional Investigation on the Bradykinin 1 Receptor (B1R) The agonistic or antagonistic action of substances can be determined on the bradykinin 1 receptor (B1R) of the human and rat species with the following assay. According to this assay, the Ca^2+ inflow through the channel is quantified with the aid of a Ca^2+-sensitive dye (Fluo-4 type, Molecular Probes Europe BV, Leiden, Netherlands) in a fluorescent imaging plate reader (FLIPR, Molecular Devices, Sunnyvale, USA). 2. Method: Chinese hamster ovary cells (CHO K1 cells) which are stably transfected with the human B1R gene (hB1R cells) or the B1R gene of the rat (rB1R cells) are used. For functional investigations these cells are plated-out onto black 96-well plates with a clear base (BD Biosciences, Heidelberg, Germany or Greiner, Frickenhausen, Germany) in a density of 20,000-35,000 cells/well. Overnight the cells are incubated at 37° C. and 5% CO2 in culture medium (hB1R cells: Ham's Nutrient Mixture F12, Gibco Invitrogen GmbH, Karlsruhe, Germany or DMEM, Sigma-Aldrich, Taufkirchen, Germany; rB1R cells: D-MEM/F12, Gibco Invitrogen, Karlsruhe, Germany) with 10 vol. % FBS (foetal bovine serum, Gibco Invitrogen GmbH, Karlsruhe, Germany or PAN Biotech GmbH, Aidenbach, Germany).
On the following day the cells are loaded with 2.13 μM Fluo-4 (Molecular Probes Europe BV, Leiden, Netherlands) in HBSS buffer (Hank's buffered saline solution, Gibco Invitrogen GmbH, Karlsruhe, Germany) with 2.5 mM probenecid (Sigma-Aldrich, Taufkirchen, Germany) and 10 mM HEPES (Sigma-Aldrich, Taufkirchen, Germany) for 60 min at 37° C. The plates are subsequently washed twice with HBSS buffer, and HBSS buffer which additionally contains 0.1% BSA (bovine serum albumin; Sigma-Aldrich, Taufkirchen, Germany), 5.6 mM glucose and 0.05% gelatine (Merck KGaA, Darmstadt, Germany) is added. After a further incubation of 20 minutes at RT, the plates are inserted into the FLIPR for Ca^2+ measurement. Alternatively they are washed with buffer A (15 mM HEPES, 80 mM NaCl, 5 mM KCl, 1.2 mM CaCl2, 0.7 mM MgSO4, 2 g/l glucose, 2.5 mM probenecid) and loaded with buffer A with added 2.5 μM Fluo-4 and 0.025% Pluronic F127 (Sigma-Aldrich, Taufkirchen, Germany). The cells are then washed twice with buffer A and incubated for 30 minutes with buffer A, which additionally contains 0.05% BSA and 0.05% gelatine, at RT and then used for Ca^2+ measurement in the FLIPR. The Ca^2+-dependent fluorescence is measured here before and after addition of substances (λex=488 nm, λem=540 nm). The quantification is performed by measuring the highest fluorescence intensity (FC, fluorescence counts) over time.
The FLIPR protocol comprises two additions of substance. Test substances (10 μM) are first pipetted onto the cells and the Ca^2+ inflow is compared with the control (hB1R: Lys-Des-Arg^9 bradykinin >=50 nM; rB1R: Des-Arg^9 bradykinin 10 μM). The value in % activation based on the Ca^2+ signal after addition of Lys-Des-Arg^9 bradykinin (>=50 nM) or Des-Arg^9 bradykinin (10 μM) is obtained therefrom. After incubation for 10-20 minutes, Lys-Des-Arg^9 bradykinin (hB1R) or Des-Arg^9 bradykinin (rB1R) is applied in the EC80 concentration and the inflow of Ca^2+ is likewise determined.
Antagonists lead to a suppression of the Ca^2+ inflow. The % inhibition in comparison with the maximum achievable inhibition is calculated. […]

B1R of the rat = biological target: T2, B1R of the rat (Rattus norvegicus, UniProt P97583); assay: FLIPR Ca2+ functional assay, B1R antagonism, rat B1R in CHO K1 cells; type: cell-based; conditions: test substance 10 μM; rB1R CHO K1 cells; agonist Des-Arg9 bradykinin at EC80; % of maximum achievable inhibition
T2 construct: expressed in transfected cells; host or cells: CHO K1 cells (Chinese hamster ovary), stably transfected
T2 sequence (P97583 1-337): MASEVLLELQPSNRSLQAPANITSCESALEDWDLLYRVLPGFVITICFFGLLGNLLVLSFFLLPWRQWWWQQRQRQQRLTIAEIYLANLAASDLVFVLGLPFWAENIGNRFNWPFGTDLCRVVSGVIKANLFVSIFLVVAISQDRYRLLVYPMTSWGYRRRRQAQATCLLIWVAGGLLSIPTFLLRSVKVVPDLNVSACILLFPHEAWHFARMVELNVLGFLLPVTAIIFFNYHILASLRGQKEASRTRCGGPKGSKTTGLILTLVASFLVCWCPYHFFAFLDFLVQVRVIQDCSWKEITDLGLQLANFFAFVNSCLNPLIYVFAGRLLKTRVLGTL
Summary of the method: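 Stably transfected CHO K1 cells loaded with Fluo-4; Ca2+ fluorescence read on FLIPR (ex 488/em 540 nm). Compound preincubated 10-20 min, then agonist at EC80: Lys-Des-Arg9 bradykinin (human) or Des-Arg9 bradykinin (rat). % inhibition vs maximal inhibition; IC50 from concentration series, n=2-3, N>=2.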

Row | Compound | inhibition at 10 µM (human B1R) | inhibition at 10 µM (B1R of the rat)
1 | Cc1cc(S(=O)(=O)N2CCn3cccc3C2CC(=O)NC2CCc3cc(CN4CCCCC4)ccc3C2)c(C)cc1Cl (centres unmarked) [Example 25, 2-(2-(4-chloro-2,5-dimethylphenylsulfonyl)-1,2,3,4-tetrahydropyrrolo[1,2-a]pyrazin-1-yl)-N-(6-(piperidin-1-ylmethyl)-1,2,3,4-tetrahydronaphthalen-2-yl)acetamide] | 96% | 103%
2 | O=C(CC1c2cccn2CCN1S(=O)(=O)c1ccc(Cl)c(Cl)c1)NC1CCc2cc(CN3CCCCC3)ccc2C1 (centres unmarked) [Example 26, 2-(2-(3,4-dichlorophenylsulfonyl)-1,2,3,4-tetrahydropyrrolo[1,2-a]pyrazin-1-yl)-N-(6-(piperidin-1-ylmethyl)-1,2,3,4-tetrahydronaphthalen-2-yl)acetamide] | 98.9% | 102%
3 | O=C(CC1c2cccn2CCN1S(=O)(=O)c1ccccc1)NC1CCc2cc(CN3CCCCC3)ccc2C1 (centres unmarked) [Example 27, 2-(2-(phenylsulfonyl)-1,2,3,4-tetrahydropyrrolo[1,2-a]pyrazin-1-yl)-N-(6-(piperidin-1-ylmethyl)-1,2,3,4-tetrahydronaphthalen-2-yl)acetamide] | 100% | 102%
4 | O=C(CC1c2cccn2CCN1S(=O)(=O)c1cccc(Cl)c1Cl)NC1CCc2cc(CN3CCCCC3)ccc2C1 (centres unmarked) [Example 28, 2-(2-(2,3-dichlorophenylsulfonyl)-1,2,3,4-tetrahydropyrrolo[1,2-a]pyrazin-1-yl)-N-(6-(piperidin-1-ylmethyl)-1,2,3,4-tetrahydronaphthalen-2-yl)acetamide] | 99.5% | 100%
5 | Cc1ccc(S(=O)(=O)N2CCn3cccc3C2CC(=O)NC2CCc3cc(CN4CCCCC4)ccc3C2)cc1 (centres unmarked) [Example 29, N-(6-(piperidin-1-ylmethyl)-1,2,3,4-tetrahydronaphthalen-2-yl)-2-(2-tosyl-1,2,3,4-tetrahydropyrrolo[1,2-a]pyrazin-1-yl)acetamide] | 99.8% | 102%
6 | O=C(CC1c2cccn2CCN1S(=O)(=O)c1cccc(C(F)(F)F)c1)NC1CCc2cc(CN3CCCCC3)ccc2C1 (centres unmarked) [Example 30, N-(6-(piperidin-1-ylmethyl)-1,2,3,4-tetrahydro-naphthalen-2-yl)-2-(2-(3-(trifluoromethyl)-phenylsulfonyl)-1,2,3,4-tetrahydropyrrolo-[1,2-a]pyrazin-1-yl)acetamide] | 99.8% | 102%
7 | COc1ccc2cc(S(=O)(=O)N3CCn4cccc4C3CC(=O)NC3CCc4cc(CNC(C)(C)C)ccc4C3)ccc2c1 (centres unmarked) [Example 31, N-(6-((tert-Butylamino)methyl)-1,2,3,4-tetrahydronaphthalen-2-yl)-2-(2-(6-methoxynaphthalen-2-ylsulfonyl)-1,2,3,4-tetrahydropyrrolo[1,2-a]-pyrazin-1-yl)acetamide] | 100% | 104%
8 | COc1cc(C)c(S(=O)(=O)N2CCn3cccc3C2COCC(=O)NC2CCN(c3ccc(C(F)(F)F)cn3)CC2)c(C)c1 (centres unmarked) [Example 32, 2-[[2-[(4-Methoxy-2,6-dimethyl-phenyl)sulfonyl]-1,2,3,4-tetrahydro-pyrrolo[1,2-a]pyrazin-1-yl]-methoxy]-N-[1-[5-(trifluoromethyl)-pyridin-2-yl]-piperidin-4-yl]-acetamide] | 8.84% | 65.5%
9 | COc1cc(C)c(S(=O)(=O)N2CCn3cccc3C2COCC(=O)NC2CCN(c3ccc(C(F)(F)F)cn3)C2)c(C)c1 (centres unmarked) [Example 33, 2-[[2-[(4-Methoxy-2,6-dimethyl-phenyl)sulfonyl]-1,2,3,4-tetrahydro-pyrrolo[1,2-a]pyrazin-1-yl]-methoxy]-N-[1-[5-(trifluoromethyl)-pyridin-2-yl]-pyrrolidin-3-yl]-acetamide] | 15.7% | 58.1%
10 | COc1cc(C)c(S(=O)(=O)N2CCn3cccc3C2COCC(=O)N2CCC(c3ccncc3)CC2)c(C)c1 (centres unmarked) [Example 34, 2-[[2-[(4-Methoxy-2,6-dimethyl-phenyl)sulfonyl]-1,2,3,4-tetrahydro-pyrrolo[1,2-a]pyrazin-1-yl]-methoxy]-1-(4-pyridin-4-yl-piperidin-1-yl)-ethanone] | 99.2% | 103%
11 | COc1cc(C)c(S(=O)(=O)N2CCn3cccc3C2COCC(=O)N2CCC(Cc3ccncc3)CC2)c(C)c1 (centres unmarked) [Example 35, 2-[[2-[(4-Methoxy-2,6-dimethyl-phenyl)sulfonyl]-1,2,3,4-tetrahydro-pyrrolo[1,2-a]pyrazin-1-yl]-methoxy]-1-[4-(pyridin-4-yl-methyl)-piperidin-1-yl]-ethanone] | 97.7% | 101%
12 | COc1cc(C)c(S(=O)(=O)N2CCn3cccc3C2COCC(=O)NC2CCN(c3ccncc3)CC2)c(C)c1 (centres unmarked) [Example 36, 2-[[2-[(4-Methoxy-2,6-dimethyl-phenyl)sulfonyl]-1,2,3,4-tetrahydro-pyrrolo[1,2-a]pyrazin-1-yl]-methoxy]-N-(1-pyridin-4-yl-piperidin-4-yl)-acetamide] | 97.5% | 103%
13 | COc1cc(C)c(S(=O)(=O)N2CCn3cccc3C2COCC(=O)N2CCC(CN3CCN(C)CC3)C2)c(C)c1 (centres unmarked) [Example 37, 2-[[2-[(4-Methoxy-2,6-dimethyl-phenyl)sulfonyl]-1,2,3,4-tetrahydro-pyrrolo[1,2-a]pyrazin-1-yl]-methoxy]-1-[3-[(4-methyl-piperazin-1-yl)-methyl]-pyrrolidin-1-yl]-ethanone] | 97.8% | 104%
